Source: US20070128217A1 (priority 2003, published 2007)

Assays:
[1] = tested on: antibodies in sera from SARS patients (sera 1a, 1b, 2, 6, 37, 62, London, SARS-yellow, SARS-green); format: binding, human; set-up: Binding of serum 6 to linear peptides of protein X1 of SARS-CoV Urbani / Binding of serum 37 to linear peptides of protein X1 of SARS-CoV Urbani / Binding of serum 6 to looped/cyclic peptide (PEPSCAN-ELISA) / Binding of serum 37 to looped/cyclic peptide (PEPSCAN-ELISA) / Binding of serum 37 to looped/cyclic peptides of protein X1 of SARS-CoV Urbani / Binding of serum 6 to linear peptides of protein X2 / Binding of serum 37 to linear peptides of protein X2 / Binding of serum 37 to looped/cyclic peptides of protein X2 of SARS-CoV Urbani / Binding of serum 6 to linear peptides of protein M of SARS-CoV Urbani / Binding of serum 37 to linear peptides of protein M of SARS-CoV Urbani / Binding of serum 6 to looped/cyclic peptides of protein M of SARS-CoV Urbani / Binding of serum 37 to looped/cyclic peptides of protein M of SARS-CoV Urbani / Binding of serum 6 to linear peptides of protein X3 of SARS-CoV Urbani / Binding of serum 37 to linear peptides of protein X3 of SARS-CoV Urbani / Binding of serum 37 to looped/cyclic peptides of protein X3 of SARS-CoV Urbani / Binding of serum 6 to linear peptides of protein X4 of SARS-CoV Urbani / Binding of serum 37 to linear peptides of protein X4 of SARS-CoV Urbani / Binding of serum 37 to looped/cyclic peptides of protein X4 of SARS-CoV Urbani / Binding of serum 6 to linear peptides of protein X5 of SARS-CoV Urbani / Binding of serum 37 to linear peptides of protein X5 of SARS-CoV Urbani / Binding of serum 37 to looped/cyclic peptides of protein X5 of SARS-CoV Urbani / Binding of serum 6 to linear peptides of protein N of SARS-CoV Urbani / Binding of serum 37 to linear peptides of protein N of SARS-CoV Urbani / Binding of serum 6 to linear peptide (PEPSCAN-ELISA) / Binding of serum 1a to looped/cyclic peptides of protein N of SARS-CoV Urbani / Binding of serum 1b to looped/cyclic peptides of protein N of SARS-CoV Urbani / Binding of serum 2 to looped/cyclic peptides of protein N of SARS-CoV Urbani / Binding of serum 6 to looped/cyclic peptides of protein N of SARS-CoV Urbani / Binding of serum 37 to looped/cyclic peptides of protein N of SARS-CoV Urbani / Binding of serum 62 to looped/cyclic peptides of protein N of SARS-CoV Urbani / Binding of serum London to looped/cyclic peptides of protein N of SARS-CoV Urbani / Binding of serum SARS-green to looped/cyclic peptides of protein N of SARS-CoV Urbani: unit not given here
[2] = tested on: control sera (pooled serum of ten healthy LUMC hospital workers; commercial negative donor pooled serum from the Dutch bloodbank); format: binding, human; set-up: Binding of Control serum LUMC to linear peptides / Binding of Control serum Blood-bank to linear peptides / Binding of Control serum LUMC to looped peptides / Binding of Control Serum Blood-Bank to Looped peptides / Binding of Control serum LUMC to linear peptides of the protein M of SARS-CoV Urbani / Binding of Control serum Blood-bank to linear peptides of the protein M of SARS-CoV Urbani / Binding of Control serum LUMC to looped peptides of the protein M of SARS-CoV Urbani / Binding of Control Serum Blood-Bank to Looped peptides of the protein M of SARS-CoV Urbani: unit not given here
[3] = tested on: rabbit serum obtained by immunizing a rabbit with the SARS-CoV strain Frankfurt 1; format: binding; set-up: Binding of a rabbit serum to linear peptides / Binding of a rabbit serum to looped peptides / Rabbit serum linear peptides / Rabbit serum looped peptides / Binding of a rabbit serum to linear peptides of protein N of SARS-CoV Urbani (Rabbit serum linear peptides) / Binding of a rabbit serum to looped/cyclic peptides of protein N of SARS-CoV Urbani (Rabbit serum looped peptides): unit not given here
[4] = tested on: recombinant human anti-SARS-CoV antibody 03-018; format: binding; set-up: Binding of antibody 03-018 to linear peptides of the N protein of SARS-CoV Urbani / Binding of antibody 03-018 to looped/cyclic peptides of the N protein of SARS-CoV Urbani: unit not given here

Sequence | Binding of serum 1a to linear peptides of protein N of SARS-CoV Urbani [1] | Binding of serum 1a to looped/cyclic peptides of protein N of SARS-CoV Urbani [1] | Binding of serum 1b to linear peptides of protein N of SARS-CoV Urbani [1] | Binding of serum 1b to looped/cyclic peptides of protein N of SARS-CoV Urbani [1] | Binding of serum 2 to linear peptides of protein N of SARS-CoV Urbani [1] | Binding of serum 2 to looped/cyclic peptides of protein N of SARS-CoV Urbani [1] | Binding of serum 6 to linear peptides of protein N of SARS-CoV Urbani [1] | Binding of serum 6 to looped/cyclic peptides of protein N of SARS-CoV Urbani [1] | Binding of serum 37 to linear peptides of protein N of SARS-CoV Urbani [1] | Binding of serum 37 to looped/cyclic peptides of protein N of SARS-CoV Urbani [1] | Binding of serum 62 to linear peptides of protein N of SARS-CoV Urbani [1] | Binding of serum 62 to looped/cyclic peptides of protein N of SARS-CoV Urbani [1] | Binding of serum London to linear peptides of protein N of SARS-CoV Urbani [1] | Binding of serum London to looped/cyclic peptides of protein N of SARS-CoV Urbani [1] | Binding of serum SARS-green to linear peptides of protein N of SARS-CoV Urbani [1] | Binding of serum SARS-green to looped/cyclic peptides of protein N of SARS-CoV Urbani [1] | Binding of serum SARS-yellow to linear peptides of protein N of SARS-CoV Urbani [1] | Binding of serum SARS-yellow to looped/cyclic peptides of protein N of SARS-CoV Urbani [1] | Binding of a rabbit serum to linear peptides of protein N of SARS-CoV Urbani (Rabbit serum linear peptides) [3] | Binding of a rabbit serum to looped/cyclic peptides of protein N of SARS-CoV Urbani (Rabbit serum looped peptides) [3] | other results
AQFAPSASAFFGMSR | 0.2 | 0.3 | 0.1 | 0.2 | 0.1 | 0.6 | 0.1 | 0.5 | 0.5 | 0.8 | 0.4 | 0.6 | 0.4 | 2.1 | 0.1 | 0.2 | 0.6 | 0.4 | 0.1 | 0.7 | Control Serum Blood-Bank Looped peptides [2]: 0.8; Control serum Blood-bank linear peptides [2]: 0.7; Control serum LUMC linear peptides [2]: 0.5; Control serum LUMC looped peptides [2]: 0.6; Binding of antibody 03-018 to linear peptides of the N protein of SARS-CoV Urbani [4]: 0.1; Binding of antibody 03-018 to looped/cyclic peptides of the N protein of SARS-CoV Urbani [4]: 0.3
AQPLPQRQKKQPTVT | 0.3 | 0.2 | 0.2 | 0.1 | 0.4 | 0.2 | 0.4 | 0.1 | 0.7 | 0.3 | 0.8 | 0.2 | 1.6 | 0.2 | 0.3 | 0.3 | 1.4 | 0.2 | 0.2 | 0.2 | Control Serum Blood-Bank Looped peptides [2]: 0.4; Control serum Blood-bank linear peptides [2]: 0.6; Control serum LUMC linear peptides [2]: 0.7; Control serum LUMC looped peptides [2]: 0.3; Binding of antibody 03-018 to linear peptides of the N protein of SARS-CoV Urbani [4]: 0.1; Binding of antibody 03-018 to looped/cyclic peptides of the N protein of SARS-CoV Urbani [4]: 0.1
ARPKQRRPQGLPNNT | 0.2 | 0.2 | 0.1 | 0.1 | 0.3 | 0.4 | 0.2 | 0.2 | 0.7 | 0.5 | 0.6 | 0.5 | 0.5 | 0.3 | 0.5 | 0.2 | 0.5 | 0.2 | 0.2 | 0.4 | Binding of Control Serum Blood-Bank to Looped peptides [2]: 0.6; Binding of Control serum Blood-bank to linear peptides [2]: 0.6; Binding of Control serum LUMC to linear peptides [2]: 0.6; Binding of Control serum LUMC to looped peptides [2]: 0.5; Binding of antibody 03-018 to linear peptides of the N protein of SARS-CoV Urbani [4]: 0.1; Binding of antibody 03-018 to looped/cyclic peptides of the N protein of SARS-CoV Urbani [4]: 0.2
